Source: US20030050306A1, “Novel heteroaryl derivatives, their preparation and use” (H. Lundbeck A/S, priority 1999, published 2003)

Legend:
[1] = target: T1, cloned human 5-HT1A receptors (Homo sapiens, UniProt P08908); experiment: Inhibition of 3H-5-CT binding to human 5-HT1A receptors; conditions: cloned human 5-HT1A receptors in HeLa cells (HA7); for inhibition at 0.1 µM / Inhibition of 3H-5-CT Binding % inhibition at 100 nM: at 100 nM
T1 construct: expressed in transfected cells; host or cells: HeLa cells (HA7)
T1 sequence (P08908 1-422): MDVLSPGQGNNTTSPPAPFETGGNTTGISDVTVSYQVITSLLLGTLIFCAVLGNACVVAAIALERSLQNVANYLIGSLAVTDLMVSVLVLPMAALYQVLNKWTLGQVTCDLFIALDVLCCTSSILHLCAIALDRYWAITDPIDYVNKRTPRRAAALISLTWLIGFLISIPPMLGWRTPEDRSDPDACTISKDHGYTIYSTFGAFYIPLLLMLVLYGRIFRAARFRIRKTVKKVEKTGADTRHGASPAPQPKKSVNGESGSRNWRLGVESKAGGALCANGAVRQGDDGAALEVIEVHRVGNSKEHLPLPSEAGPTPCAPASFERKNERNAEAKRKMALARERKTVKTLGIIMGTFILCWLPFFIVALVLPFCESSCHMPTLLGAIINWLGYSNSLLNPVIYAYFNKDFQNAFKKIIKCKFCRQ
Protocol: The affinity of the compounds of the invention to 5-HT1A receptors was determined by measuring the inhibition of binding of a radioactive ligand at 5-HT1A receptors as described in the following test:
Inhibition of ^3H-5-CT Binding to Human 5-HT1A Receptors
By this method the inhibition by drugs of the binding of the 5-HT1A agonist ^3H-5-carboxamido tryptamine (3H-5-CT) to cloned human 5-HT1A receptors stably expressed in transfected HeLa cells (HA7) (Fargin, A. et al, J. Biol. Chem., 1989, 264, 14848) is determined in vitro. The assay was performed as a modification of the method described by Harrington, M. A. et at, J. Pharmacol. Exp. Ther., 1994, 268, 1098. Human 5-HT1A receptors (40 μg of cell homogenate) were incubated for 15 minutes at 37° C. in 50 mM Tris buffer at pH 7.7 in the presence of ^3H-5-CT. Non-specific binding was determined by including 10 μM of metergoline. The reaction was terminated by rapid filtration through Unifilter GF/B filters on a Tomtec Cell Harvester. Filters were counted in a Packard Top Counter.

[2] = target: T2, human cloned dopamine D4.2 receptors (Homo sapiens, UniProt P21917, DEL265-296); experiment: Inhibition of the binding of 3H-YM-09151-2 to human dopamine D4 receptors; conditions: human cloned dopamine D4.2 receptors in CHO-cells; for inhibition at 0.05 µM / Inhibition of 3H-YM-09151-2 binding % inhibition at 50 nM: at 50 nM
T2 construct: expressed in transfected cells; host or cells: CHO cells
T2 sequence (P21917 with tags, fused parts or gaps DEL265-296): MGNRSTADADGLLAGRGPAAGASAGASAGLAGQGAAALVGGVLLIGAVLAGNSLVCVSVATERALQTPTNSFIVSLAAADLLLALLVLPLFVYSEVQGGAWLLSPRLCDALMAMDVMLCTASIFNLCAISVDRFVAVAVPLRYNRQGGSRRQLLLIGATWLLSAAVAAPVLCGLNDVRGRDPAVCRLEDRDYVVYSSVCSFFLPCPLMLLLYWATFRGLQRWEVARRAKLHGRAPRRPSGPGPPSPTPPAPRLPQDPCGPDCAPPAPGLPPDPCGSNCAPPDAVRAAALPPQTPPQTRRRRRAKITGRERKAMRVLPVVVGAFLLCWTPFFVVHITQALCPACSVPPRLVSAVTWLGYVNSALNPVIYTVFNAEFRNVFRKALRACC
Protocol: The compounds of the invention have also been tested for their affinity to dopamine D4 receptors in the following test.
Inhibition of the Binding of ^3H-YM-09151-2 to Human Dopamine D4 Receptors
By this method the inhibition by drugs of the binding of [^3H]YM-09151-2 (0.06 nM) to membranes of human cloned dopamine D4.2 receptors expressed in CHO-cells is determined in vitro. Method modified from NEN Life Science Products, Inc., technical data certificate PC2533-10/96.

Structure (SMILES) | inhibition at 0.1 µM [1] [%] | inhibition at 0.05 µM [2] [%] | further results
N#Cc1ccc(N2CCN(CCCOc3c(Cl)cccc3Cl)CC2)c2c1OCCO2 [Compound 5cl, 8-{4-[3-(2,6-Dichloro-phenoxy)-propyl]-piperazin-1-yl}-2,3-dihydro-benzo[1,4]dioxine-5-carbonitrile] | 83 | 42 | –
Cc1cc(F)ccc1OCCCN1CCN(c2ccc(C#N)c3c2OCCO3)CC1 [Compound 6a, 8-{4-[3-(4-Fluoro-2-methyl-phenoxy)-propyl]-piperazin-1-yl}-2,3-dihydro-benzo[1,4]dioxine-5-carbonitrile] | – | – | IC50 [1]: 120 nM; IC50 [2]: 6.9 nM
N#Cc1ccc(N2CCN(CCCOc3ccc(F)cc3Br)CC2)c2c1OCCO2 [Compound 6b, 8-{4-[3-(2-Bromo-4-fluoro-phenoxy)-propyl]-piperazin-1-yl}-2,3-dihydro-benzo[1,4]dioxine-5-carbonitrile] | – | – | IC50 [1]: 230 nM; IC50 [2]: 10 nM
N#Cc1ccc(N2CCN(CCCOc3ccccc3Cl)CC2)c2c1OCCO2 [Compound 6c, 8-{4-[3-(2-Chloro-phenoxy)-propyl]-piperazin-1-yl}-2,3-dihydro-benzo[1,4]dioxine-5-carbonitrile] | – | – | IC50 [1]: 68 nM; IC50 [2]: 13 nM
c1ccc(SCCN2CCN(c3cccc4c3OCCO4)CC2)cc1 [Compound 7aa, 1-(2,3-Dihydro-benzo[1,4]dioxin-5-yl)-4-(2-phenylsulfanyl-ethyl)-piperazine] | 78 | 84 | –
Cc1cccc(C)c1OCCN1CCN(c2cccc3c2OCCO3)CC1 [Compound 7ab, 1-(2,3-Dihydro-benzo[1,4]dioxin-5-yl)-4-[2-(2,6-dimethyl-phenoxy)-ethyl]-piperazine] | 86 | 91 | –
Cc1cccc(C)c1SCCCCN1CCN(c2cccc3c2OCCO3)CC1 [Compound 7ac, 1-(2,3-Dihydro-benzo[1,4]dioxin-5-yl)-4-[4-(2,6-dimethyl-phenylsulfanyl)-butyl]-piperazine] | 96 | 96 | –
Cc1ccc(SCCN2CCN(c3cccc4c3OCCO4)CC2)c(C)c1 [Compound 7ad, 1-(2,3-Dihydro-benzo[1,4]dioxin-5-yl)-4-[2-(2,4-dimethyl-phenylsulfanyl)-ethyl]-piperazine] | – | 91 | IC50 [1]: 21 nM
FC(F)(F)c1ccccc1OCCN1CCN(c2cccc3c2OCCO3)CC1 [Compound 7ae, 1-(2,3-Dihydro-benzo[1,4]dioxin-5-yl)-4-[2-(2-trifluoromethyl-phenoxy)-ethyl]-piperazine] | 82 | 75 | –
FC(F)(F)c1ccccc1SCCN1CCN(c2cccc3c2OCCO3)CC1 [Compound 7af, 1-(2,3-Dihydro-benzo[1,4]dioxin-5-yl)-4-[2-(2-trifluoromethyl-phenylsulfanyl)-ethyl]-piperazine] | 99 | 91 | –
CCc1ccccc1OCCN1CCN(c2cccc3c2OCCO3)CC1 [Compound 7ag, 1-(2,3-Dihydro-benzo[1,4]dioxin-5-yl)-4-[2-(2-ethyl-phenoxy)-ethyl]-piperazine] | 79 | 88 | –
Clc1cccc(SCCN2CCN(c3cccc4c3OCCO4)CC2)c1Cl [Compound 7ah, 1-[2-(2,3-Dichloro-phenylsulfanyl)-ethyl]-4-(2,3-dihydro-benzo[1,4]dioxin-5-yl)-piperazine] | – | 87 | IC50 [1]: 1.6 nM
C=CCc1cccc(Cl)c1OCCN1CCN(c2cccc3c2OCCO3)CC1 [Compound 7ai, 1-[2-(2-Allyl-6-chloro-phenoxy)-ethyl]-4-(2,3-dihydro-benzo[1,4]dioxin-5-yl)-piperazine] | 90 | 82 | –
Cc1ccc(SCCCN2CCN(c3cccc4c3OCCO4)CC2)c(C)c1 [Compound 7aj, 1-(2,3-Dihydro-benzo[1,4]dioxin-5-yl)-4-[3-(2,4-dimethyl-phenylsulfanyl)-propyl]-piperazine] | 99 | 84 | –
FC(F)(F)c1ccccc1SCCCN1CCN(c2cccc3c2OCCO3)CC1 [Compound 7ak, 1-(2,3-Dihydro-benzo[1,4]dioxin-5-yl)-4-[3-(2-trifluoromethyl-phenylsulfanyl)-propyl]-piperazine] | 93 | 98 | –
Clc1cccc(SCCCN2CCN(c3cccc4c3OCCO4)CC2)c1Cl [Compound 7al, 1-[3-(2,3-Dichloro-phenylsulfanyl)-propyl]-4-(2,3-dihydro-benzo[1,4]dioxin-5-yl)-piperazine] | 98 | 97 | –
Clc1ccc(SCCCN2CCN(c3cccc4c3OCCO4)CC2)cc1Cl [Compound 7am, 1-[3-(3,4-Dichloro-phenylsulfanyl)-propyl]-4-(2,3-dihydro-benzo[1,4]dioxin-5-yl)-piperazine] | 100 | 99 | –
Clc1ccc(SCCCCN2CCN(c3cccc4c3OCCO4)CC2)cc1Cl [Compound 7an, 1-[4-(3,4-Dichloro-phenylsulfanyl)-butyl]-4-(2,3-dihydro-henzo[1,4]dioxin-5-yl)-piperazine] | – | – | Inhibition of 3H-5-CT Binding % inhibition at 100 nM [1]: 100%; Inhibition of 3H-YM-09151-2 binding % inhibition at 50 nM [2]: 91%
Cc1ccc(Cl)c(OCCCCN2CCN(c3cccc4c3OCCO4)CC2)c1 [Compound 7ao, 1-[4-(2-Chloro-5-methyl-phenoxy)-butyl]-4-(2,3-dihydro-benzo[1,4]dioxin-5-yl)-piperazine] | 97 | 89 | –
Clc1ccc(SCCN2CCN(c3cccc4c3OCCO4)CC2)c(Cl)c1 [Compound 7ap, 1-[2-(2,4-Dichloro-phenylsulfanyl)-ethyl]-4-(2,3-dihydro-henzo[1,4]dioxin-5-yl)-piperazine] | – | – | Inhibition of 3H-5-CT Binding % inhibition at 100 nM [1]: 91%; Inhibition of 3H-YM-09151-2 binding % inhibition at 50 nM [2]: 78%
Cc1cccc(SCCCN2CCN(c3cccc4c3OCCO4)CC2)c1 [Compound 7aq, 1-(2,3-Dihydro-benzo[1,4]dioxin-5-yl)-4-(3-m-tolylsulfanyl-propyl)-piperazine] | 101 | 82 | –
Clc1ccc(SCCCCN2CCN(c3cccc4c3OCCO4)CC2)c(Cl)c1 [Compound 7ar, 1-[4-(2,4-Dichloro-phenylsulfanyl)-butyl]-4-(2,3-dihydro-benzo[1,4]dioxin-5-yl)-piperazine] | – | 99 | IC50 [1]: 3.8 nM
CCc1ccccc1SCCN1CCN(c2cccc3c2OCCO3)CC1 [Compound 7as, 1-(2,3-Dihydro-benzo[1,4]dioxin-5-yl)-4-[2-(2-ethyl-phenylsulfanyl)-ethyl]-piperazine] | 80 | 93 | –
Clc1ccc(Cl)c(SCCN2CCN(c3cccc4c3OCCO4)CC2)c1 [Compound 7at, 1-[2-(2,5-Dichloro-phenylsulfanyl)-ethyl]-4-(2,3-dihydro-henzo[1,4]dioxin-5-yl)-piperazine] | – | – | Inhibition of 3H-5-CT Binding % inhibition at 100 nM [1]: 88%; Inhibition of 3H-YM-09151-2 binding % inhibition at 50 nM [2]: 92%
Clc1cccc(SCCN2CCN(c3cccc4c3OCCO4)CC2)c1 [Compound 7au, 1-[2-(3-Chloro-phenylsulfanyl)-ethyl]-4-(2,3-dihydro-benzo[1,4]dioxin-5-yl)-piperazine] | 84 | 87 | –
